Data published in paper PMC12116762, “Topobexin targets the Topoisomerase II ATPase domain for beta isoform-selective inhibition and anthracycline cardioprotection” (Nature Communications, 2025).
“And” between values parts separate entries of the source, which are not always exact repeats. Equal values may be shown once.

How the values were obtained:
[1] = molecular target: T1, TOP2B C88Y (Homo sapiens, UniProt Q02880, C93Y); test: ATPase activity of TOP2B C88Y mutant; format: biochemical; details: for effect of C88Y mutation in TOP2B on inhibition: vs TOP2B WT
T1 construct: Using recombinant full-length human TOP2A and TOP2B enzymes; YFP (N, cleaved yes); made in house; host or cells: HEK293F
T1 sequence (Q02880 1-1621 isoform Q02880-2 C88Y): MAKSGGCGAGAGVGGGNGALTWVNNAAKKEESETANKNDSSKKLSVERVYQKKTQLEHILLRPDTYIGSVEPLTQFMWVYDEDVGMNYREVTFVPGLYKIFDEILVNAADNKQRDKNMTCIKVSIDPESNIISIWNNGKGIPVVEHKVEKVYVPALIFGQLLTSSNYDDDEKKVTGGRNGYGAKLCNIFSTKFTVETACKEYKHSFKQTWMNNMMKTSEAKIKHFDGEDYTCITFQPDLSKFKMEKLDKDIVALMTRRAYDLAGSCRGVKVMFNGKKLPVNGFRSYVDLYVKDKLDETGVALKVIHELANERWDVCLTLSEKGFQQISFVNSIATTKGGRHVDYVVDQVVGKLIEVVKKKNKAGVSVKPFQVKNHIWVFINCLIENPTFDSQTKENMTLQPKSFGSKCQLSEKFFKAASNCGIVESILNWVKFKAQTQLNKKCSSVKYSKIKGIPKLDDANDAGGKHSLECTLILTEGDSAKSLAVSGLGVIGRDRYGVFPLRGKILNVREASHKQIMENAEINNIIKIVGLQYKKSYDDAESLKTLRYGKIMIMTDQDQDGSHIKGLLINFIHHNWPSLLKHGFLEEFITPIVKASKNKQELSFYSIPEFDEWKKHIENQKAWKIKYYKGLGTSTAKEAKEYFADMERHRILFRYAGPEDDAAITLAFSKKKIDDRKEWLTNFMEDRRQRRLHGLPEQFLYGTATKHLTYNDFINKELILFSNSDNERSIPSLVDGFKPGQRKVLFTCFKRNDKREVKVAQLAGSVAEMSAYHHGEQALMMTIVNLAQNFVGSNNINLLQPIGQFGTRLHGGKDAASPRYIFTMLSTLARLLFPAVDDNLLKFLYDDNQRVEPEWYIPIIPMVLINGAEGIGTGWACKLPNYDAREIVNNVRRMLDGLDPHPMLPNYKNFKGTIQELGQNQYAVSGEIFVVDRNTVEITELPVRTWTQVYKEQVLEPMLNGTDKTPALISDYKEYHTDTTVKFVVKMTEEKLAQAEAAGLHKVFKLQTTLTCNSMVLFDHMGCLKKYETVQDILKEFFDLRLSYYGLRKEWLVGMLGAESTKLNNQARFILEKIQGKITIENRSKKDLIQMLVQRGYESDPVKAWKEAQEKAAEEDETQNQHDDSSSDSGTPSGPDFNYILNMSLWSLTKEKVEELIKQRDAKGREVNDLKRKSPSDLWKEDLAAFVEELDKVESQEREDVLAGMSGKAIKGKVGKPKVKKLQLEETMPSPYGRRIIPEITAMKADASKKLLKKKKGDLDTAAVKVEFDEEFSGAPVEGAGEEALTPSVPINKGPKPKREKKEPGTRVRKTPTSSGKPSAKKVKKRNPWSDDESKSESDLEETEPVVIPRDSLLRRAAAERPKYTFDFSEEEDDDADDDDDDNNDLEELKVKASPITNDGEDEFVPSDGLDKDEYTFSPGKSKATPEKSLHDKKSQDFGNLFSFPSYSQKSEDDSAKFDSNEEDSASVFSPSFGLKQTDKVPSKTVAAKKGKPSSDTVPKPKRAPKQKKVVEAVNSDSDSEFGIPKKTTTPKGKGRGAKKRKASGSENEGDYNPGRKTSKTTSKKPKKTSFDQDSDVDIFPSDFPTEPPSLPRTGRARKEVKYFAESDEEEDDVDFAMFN
Experimental: The human topoisomerase II decatenation assay was performed to determine the inhibitory effects of BNS-22 and new compounds as previously described with minor modifications[14],[36]. The assay was performed using recombinant human TOP2A or TOP2B generated using the HEK293F YFP-tag expression system as previously described[18],[19],[36]. Briefly, plasmids encoding YFP-TOP2A or YFP-TOP2B were transfected into HEK293F cells (Catalog number 11625019, Thermofisher Scientific), and TOP2 proteins were isolated from cell lysates by anti-YFP nanobody affinity chromatography. After elution by TEV protease cleavage, TOP2 proteins were FPLC purified by sequential cation exchange and size exclusion chromatography. Plasmid encoding TOP2B C88Y was generated by round-the-horn PCR mutagenesis and the sequence was verified by full-plasmid sequencing. Purified TOP2 proteins were stored in a storage buffer containing 20 mM HEPES pH 7.5, 500 mM NaCl, 0.5 mM TCEP, 25% (v/v) glycerol at -80 °C. For decatenation assays, purified TOP2 proteins were incubated with 200 ng kDNA (Topogen) in a reaction buffer containing 50 mM Tris−HCl (pH 8), 100 mM NaCl, 10 mM MgCl2, 0.5 mM DTT, 2 mM ATP, 0.1 mM tris(2-carboxyethyl)phosphine (TCEP), 5% (v/v) glycerol, 70 μg/mL bovine serum albumin, and 1/10 volume of each compound diluted in 10% DMSO (final DMSO concentration 1%) for 40 min at 37 °C. The reaction was then stopped by the addition of gel loading buffer (0.5 volumes of 60% (w/v) glycerol, 60 mM EDTA, 20 mM Tris−HCl (pH 7.5), 0.5 mg/mL bromophenol blue) and the samples were placed on ice. Reaction products were resolved by agarose gel electrophoresis in TBE buffer containing GelRed stain (Biotium). Gels were visualized using an iBright CL1000 (Thermofisher Scientific). Band intensities were quantified using FIJI, and the signal of the treated samples was normalized to the value of the control (untreated sample; 100%) present on the same gel. The normalized signal of three independent measurements was then expressed as mean ± SD. Each presented data point was obtained from distinct sample. Normalized values were plotted as a function of inhibitor concentration to determine IC50 values by nonlinear regression with variable slope using Prism 9 (GraphPad).
Topoisomerase proteins were diluted to 500 nM in storage buffer containing 20 mM HEPES pH 7.5, 500 mM NaCl, 0.5 mM TCEP, 25% glycerol, and 0.2 mg/mL BSA prior to use. A coupled assay was used to measure TOP2-catalyzed ATP hydrolysis in vitro[37] in Costar 96-well plates (Corning Incorporated). […] Reaction plates were pre-warmed to 30 °C for 5 min and ATP was added last to initiate the reaction. The reaction plate was placed in a CLARIOstarPlus plate reader (BMG Labtech) to measure NADH fluorescence at 30 °C every 30 s over 120 cycles using a 340-60 excitation filter and a 480-100 emission filter. Background fluorescence signals calculated from wells containing no ATP were subtracted from each measurement. The slope of NADH fluorescence decay in each well was calculated using the MARS software (BMG Labtech) and reaction wells that lacked topoisomerase inhibitor to account for photobleaching of NADH fluorescence served as background subtraction. Each presented data point was obtained from distinct sample. Values were normalized to untreated controls and plotted as a function of inhibitor concentration to determine IC50 values using Prism 9 (GraphPad).

[2] = tested on: HL-60 cell line; test: Antiproliferative activity and interference with DAU (MTT), HL-60; format: cell-based, human; details: for HL-60 proliferation (MTT), mean of independent replicates: Suppl.Fig.8c
Experimental: Antiproliferative effects of studied compounds alone or in combination with DAU were assayed, as described previously, using HL-60 cell line (ATCC® Catalog Number: CCL-240TM, lot 5036502; American Type Culture Collection, Manassas, VA) derived from a patient with acute promyelocytic leukaemia. The cells were cultured in RPMI-1640 medium supplemented with 10% FBS, 50 U/mL penicillin, and 50 μg/mL streptomycin solution at 37 °C in a humidified atmosphere of 5% CO2. For the experiments, cells were seeded on 96-well plates (TPP, Switzerland) at a density of 10,000 cells per well ([…]). […] Proliferation was assessed by the MTT assay. Briefly, 25 µL of 3 mg/mL MTT solution (3(4,5-dimethyl-2-thiazolyl)-2,5-diphenyl-2H-tetrazolium bromide) in PBS was added to each well, and after 2 h of incubation at 37 °C the cells were lysed with lysis buffer (isopropanol, 0.1 M HCl, 5% Triton X-100) for 30 minutes at RT. After the formazan was dissolved, the absorbance of the samples was measured at 570 nm and a reference wavelength at 690 nm (the 690 nm background absorbance was subtracted from the 570 nm values). Data are expressed as mean ± SD from four independent experiments. Normalized values were plotted as a function of inhibitor concentration to determine IC50 values using Prism 9 (GraphPad). Statistical significance was evaluated by ANOVA with the Holm-Sidak post hoc test (P ≤ 0.05, marked as significant difference against control (c) or DAU (d)).

[3] = tested on: rabbits; test: Chronic anthracycline cardiotoxicity model in rabbits
Experimental: Thirty-eight rabbits were used for this purpose using the following study design. Chronic cardiotoxicity was induced by DAU (3 mg/kg, i.v., once weekly for 10 weeks, n = 11), while the control group received the same volume of saline (1 ml/kg, n = 9) in the same way. […] Animal survival was monitored daily, while body weight change was recorded weekly. The experiment was scheduled to end a week after the last dosing of the compounds studied.
Cardiac damage induced by DAU was quantified by determination of cardiac troponin T in plasma before the 1st, 5th, 8th and 10th doses and at the end of the study using a high sensitivity assay (Elecsys Troponin T high sensitive STAT test, Roche Diagnostics, Switzerland, detection limit of 0.003 μg/L). The area under curve (AUC) of the plasma concentration of cardiac troponin T was determined using GraphPad Prism.
The systolic function of the LV was examined throughout the experiment without invasiveness using echocardiography (Vivid 4, probe 10.5 MHz, GE HeathCare) and invasively at the scheduled end of the experiment using LV catheterization (a Millar catheter 2.3 F, Millar Instruments, USA). In the echocardiography examination, the M-mode was used to determine the dimensions of the LV and the fractional shortening of the LV (LVFS) was calculated as an index of systolic function as described previously[46]. Similarly, from the change in LV pressures determined by catheterization of the LV, dP/dtmax was calculated as an index of systolic function as previously described[47]. Statistical significance was determined using one way ANOVA followed by the Holm–Sidak post hoc test or Kruskal–Wallis ANOVA on ranks followed by Dunn’s post hoc test according to the data distribution.
During necropsy, heart was rapidly excised, washed in cold saline and LV free wall was snap frozen in liquid nitrogen. After homogenization in liquid nitrogen, aliquots (aprox. 50 mg) were stored at -80 °C and used for PCR analysis of molecular markers of cardiotoxicity. Total RNA was isolated from rabbit LV myocardium using TRIzol reagent (Sigma-Aldrich). After reverse transcription using a High-Capacity cDNA Reverse Transcription Kit, qPCR was performed with TaqMan Fast Universal PCR Master Mix on QuantStudio 7 Flex Real-Time PCR System (all from Applied Biosystems, Foster City). […] Mean threshold cycle values were transformed into relative expression using the Pfaffl method. Commercial gene expression assays were obtained from Applied Biosystems and Generi Biotech (Hradec Králové, Czech Republic). The expression data were normalized by Hprt1 expression. Statistical significance was determined using one way ANOVA followed by the Holm–Sidak post hoc test or Kruskal–Wallis ANOVA on ranks followed by Dunn’s post hoc test according to the data distribution.

[4] = tested on: caspase 3/7; test: Caspase 3/7 activity in NVCM (Caspase-Glo); format: cell-based, rat; details: for Csp3/7 activity: independent replicates
Experimental: Caspase activity was assessed on NVCM cells using luciferase-based kits for caspase 3/7, 8 and 9 (Caspase-Glo® 3/7, 8 and 9 assay systems; Promega) according to the manufacturer’s instructions on 384-well plates (Greiner Bio-One). Luminescence signal was measured using Tecan M200 multifunctional plate-reader. All measured groups were corrected for total protein concentration (BCA assay) and were expressed as fold change of the signal over corresponding untreated control group. Each presented data point was obtained from distinct sample. Statistical significance was determined using ratio paired t-test, two-tailed.

[5] = Topobexin alone, individual animals
[6] = Topobexin+DAU, individual animals

CCCc1cc(=O)oc2c(C(=O)N3CCCc4ccccc43)c(OC)cc(OC)c12 [BNS-22]
IC50 [1]: 1.55 µM | effect of C88Y mutation in TOP2B on inhibition [1]: did not alter inhibition

COc1cccc2c1C(=O)c1c(O)c3c(c(O)c1C2=O)C[C@@](O)(C(C)=O)C[C@@H]3O[C@H]1C[C@H](N)[C@H](O)[C@H](C)O1 [DAU, daunorubicin, reference compound]
HL-60 proliferation (MTT), mean of independent replicates ([2]; DAU 1.2 µM alone): 35.1587 | premature death ([3]; DAU 3 mg/kg weekly, 10 weeks): one premature death | Body weight gain ([3]; DAU alone, individual animals): 111.6 and 102.0 and 134.7 and 116.1 and 99.5 and 98.2 and 106.3 and 117.5 and 112.5 and 97.6 and 92.2 | Brain natriuretic peptide mRNA, LV myocardium ([3]; DAU alone, individual animals): 3.43 and 7.71 and 11.23 and 1.53 and 3.70 and 14.27 and 5.99 and 15.03 and 2.12 and 2.78 | Collagen I alpha 1 mRNA ([3]; DAU alone, individual animals): 1.89 and 3.79 and 5.05 and 1.80 and 2.15 and 7.04 and 4.33 and 8.95 and 1.98 and 2.03 | Fibronectin 1 mRNA ([3]; DAU alone, individual animals): 2.75 and 11.42 and 16.69 and 2.86 and 6.76 and 33.96 and 11.80 and 25.41 and 3.99 and 2.01 | LV FS (LMV) ([3]; DAU alone, individual animals): 35.5 and 28.3 and 21.8 and 37.5 and 22.5 and 33.0 and 26.0 and 35.8 | LV dP/dtmax ([3]; DAU alone, individual animals): 4037 and 6946 and 6956 and 5174 and 3773 and 6731 and 5382 and 6442 | Δ LV FS (LMV) ([3]; DAU alone, individual animals): -7.5 and -6.8 and -15.3 and -22.3 and -4.5 and -6.0 and -18.5 and -9.0 and -16.5 and -17.5 and -9.2 | Csp3/7 activity, mean ([4]; DAU 1.2 μM alone): 3.236 fold change | Csp3/7 activity ([4]; DAU 1.2 μM alone): 2.392 fold change and 2.445 fold change and 4.746 fold change and 2.53 fold change and 4.167 fold change and 3.136 fold change

CCCc1cc(=O)oc2c(C(=O)N3CCCc4ccccc43)c(OCCN3CCN(C)CC3)ccc12 [topobexin (9)]
effect on antiproliferative effects of DAU ([2]; HL-60, any concentration tested): did not decrease the antiproliferative effects of DAU | HL-60 proliferation (MTT), mean of independent replicates ([2]; compound 0.01 µM + DAU 1.2 µM): 39.4171 | HL-60 proliferation (MTT), mean of independent replicates ([2]; compound 0.1 µM + DAU 1.2 µM): 37.298 | HL-60 proliferation (MTT), mean of independent replicates ([2]; compound 1 µM + DAU 1.2 µM): 37.3478 | HL-60 proliferation (MTT), mean of independent replicates ([2]; compound 10 µM + DAU 1.2 µM): 18.3679 | HL-60 proliferation (MTT), mean of independent replicates ([2]; compound 30 µM + DAU 1.2 µM): 13.5189 | HL-60 proliferation (MTT), mean of independent replicates ([2]; compound 100 µM + DAU 1.2 µM): 1.772 | HL-60 proliferation (MTT), mean of independent replicates ([2]; compound alone 0.01 µM): 99.5782 | HL-60 proliferation (MTT), mean of independent replicates ([2]; compound alone 0.1 µM): 97.2193 | HL-60 proliferation (MTT), mean of independent replicates ([2]; compound alone 1 µM): 91.5968 | HL-60 proliferation (MTT), mean of independent replicates ([2]; compound alone 10 µM): 13.6521 | HL-60 proliferation (MTT), mean of independent replicates ([2]; compound alone 30 µM): 12.3063 | HL-60 proliferation (MTT), mean of independent replicates ([2]; compound alone 100 µM): 1.671 | Body weight gain [3, 5]: 141.3 and 136.4 and 124.5 and 123.7 and 134.0 and 143.6 and 132.0 | Brain natriuretic peptide mRNA, LV myocardium [3, 5]: 3.72 and 0.42 and 0.55 and 0.81 and 0.90 and 0.28 and 2.33 | Collagen I alpha 1 mRNA [3, 5]: 1.54 and 1.27 and 0.81 and 0.88 and 1.14 and 1.41 and 1.19 | Fibronectin 1 mRNA [3, 5]: 1.41 and 1.30 and 1.55 and 1.58 and 1.78 | LV FS (LMV) [3, 5]: 42.0 and 40.5 and 42.5 and 43.5 and 39.0 and 43.0 | LV dP/dtmax [3, 5]: 7750 and 7165 and 9815 and 8309 and 8311 and 8034 and 7362 | Δ LV FS (LMV) [3, 5]: 1.0 and -1.5 and 2.0 and -1.0 and -2.5 | Body weight gain [3, 6]: 104.9 and 134.7 and 121.0 and 128.3 and 113.2 and 106.8 and 114.9 and 101.0 and 104.7 | Brain natriuretic peptide mRNA, LV myocardium [3, 6]: 1.55 and 3.15 and 0.69 and 1.65 and 1.04 and 0.65 and 5.19 and 1.00 and 2.01 and 1.22 and 0.48 | Collagen I alpha 1 mRNA [3, 6]: 0.77 and 1.31 and 1.34 and 2.10 and 1.65 and 1.81 and 2.59 and 0.95 and 1.66 and 0.86 and 1.09 | Fibronectin 1 mRNA [3, 6]: 0.87 and 1.85 and 1.50 and 1.99 and 1.56 and 2.18 and 3.87 and 1.34 and 1.94 and 1.25 and 1.18 | LV FS (LMV) [3, 6]: 42.0 and 43.5 and 39.3 and 42.3 and 44.0 and 42.8 and 40.0 and 41.0 and 43.8 | LV dP/dtmax [3, 6]: 8562 and 8147 and 6788 and 7928 and 8340 and 7337 and 7402 and 8558 and 8112 and 8066 and 7973 | Δ LV FS (LMV) [3, 6]: -1.5 and 3.0 and -2.3 and 0.5 and 4.0 and -0.3 and -4.0 and -1.0 and 0.0 and 2.3 and 2.0 | tolerability ([3]; alone or with DAU, weekly for 10 weeks): well tolerated | Body weight gain ([3]; topobexin + DAU): matched the DAU group | LV expression of BNP ([3]; topobexin + DAU): prevented by co-administration of topobexin (9) | LV systolic function (echocardiography) ([3]; topobexin + DAU): effectively prevented the DAU-induced decrease in LV systolic function | cardiomyocyte damage, plasma cTnT ([3]; topobexin + DAU): effectively prevented by topobexin (9) | survival ([3]; topobexin + DAU): survived until the scheduled end of the experiment | Body weight gain ([3]; topobexin alone): did not differ from the control group | Csp3/7 activity, mean ([4]; Cmpd 9 10 μM + DAU 1.2 μM): 1.924 fold change | Csp3/7 activity ([4]; Cmpd 9 10 μM + DAU 1.2 μM): 1.455 fold change and 1.638 fold change and 2.77 fold change and 1.323 fold change and 2.6893 fold change and 1.665 fold change | Csp3/7 activity, mean ([4]; Cmpd 9 10 μM alone): 0.9751 fold change | Csp3/7 activity ([4]; Cmpd 9 10 μM alone): 1.249 fold change and 1.002 fold change and 1.008 fold change and 0.6241 fold change and 0.959 fold change and 1.009 fold change | DAU-induced apoptotic signaling by caspases 3/7, 8, and 9 ([4]; NVCM): reduces DAU-induced apoptotic signaling | IC50 [1]: 1.88 µM | remaining activity at 0.0625 µM ([1]; 0.0625 μM, independent replicates, normalized to 0 drug): 98.2% | remaining activity at 0.125 µM ([1]; 0.125 μM, independent replicates, normalized to 0 drug): 97.9% | remaining activity at 0.25 µM ([1]; 0.25 μM, independent replicates, normalized to 0 drug): 95.9% | remaining activity at 0.5 µM ([1]; 0.5 μM, independent replicates, normalized to 0 drug): 84.7% | remaining activity at 1 µM ([1]; 1 μM, independent replicates, normalized to 0 drug): 69.3% | remaining activity at 2 µM ([1]; 2 μM, independent replicates, normalized to 0 drug): 43.5% | remaining activity at 4 µM ([1]; 4 μM, independent replicates, normalized to 0 drug): 18.5% | remaining activity at 8 µM ([1]; 8 μM, independent replicates, normalized to 0 drug): 6.37% | effect of C88Y mutation in TOP2B on inhibition [1]: conferred significant resistance to inhibition
